Measurements reported in US10645929B2, “Pyrimidine compound” (Sumitomo Chemical Company, Limited, priority 2015, dated 2020).

Tested on: cucurbit leaf beetle (Aulacophora femoralis)
Assay: Test Example 10: sprayed cucumber leaves, cucurbit leaf beetle
Format: in vivo
Settings: 50 ppm, spray 10 mL/seedling, 2nd instar larvae, after 5 days
Description: Next, Test examples are used to show efficacies of the Present compounds on controlling harmful arthropods. In the following Test examples, the tests were carried out at 25° C.
Each test compound is dissolved into a mixed solution (10 μL) of xylene, DMF, and a surfactant (at a volume ratio of xylene:DMF:surfactant=4:4:1) per 1 mg of the test compound, and water containing a spreader (0.03% by volume) is added thereto to prepare a diluted solution containing a prescribed concentration of each test compound.
Cucumber seedlings (on the developmental stage of the second to third true leaf) are planted in a plastic cup, and each of the diluted solutions is sprayed into the seedlings in the ratio of 10 mL/seedling. Thereafter, the second leaves are cut out and placed into a plastic cup, and 10 heads of the 2nd instar larvae of cucurbit leaf beetle (Aulacophora femoralis) are released into the cup, and the cup is covered with a lid. After 5 days, the number of the dead insects is counted, and the mortality of insects is calculated by the following equation. Mortality (%)=(Number of dead insects/10)×100

For CCS(=O)(=O)c1cc(C(F)(F)F)ccc1-c1ncc(OCC(F)(F)C(F)C(F)(F)F)cn1 (racemic) [compound 2], which mortality is on record?
The mortality was no less than 80%.
